The conditions of data set [1]: rats, cited from earlier work.
Another data set has as its target CB2 receptors (Homo sapiens, UniProt P34972). Conditions: cited from earlier work.
A short description of data set [2]: Chemical characteristics of composition A′, concentrated and diluted forms. The class given is physicochemical. The procedure:
Several tests were conducted to determine the chemical characteristics of composition A′, both in concentrated and diluted forms. […] All liquid nanodomain droplets range in size from 5 to 20 nm. The pH of both the concentrate and diluted formulations is between 6.0 and 7.5.

For data set [3] the following is noted: doses ranging from 10 mg to 6000 mg, single and multiple doses; cited from earlier work.

A word on the logP: it is the decadic logarithm of the partition coefficient of the neutral form, usually between octanol and water. Low readings indicate lower lipophilicity, high ones higher lipophilicity.

Chain of CB2 receptors (P34972 whole entry): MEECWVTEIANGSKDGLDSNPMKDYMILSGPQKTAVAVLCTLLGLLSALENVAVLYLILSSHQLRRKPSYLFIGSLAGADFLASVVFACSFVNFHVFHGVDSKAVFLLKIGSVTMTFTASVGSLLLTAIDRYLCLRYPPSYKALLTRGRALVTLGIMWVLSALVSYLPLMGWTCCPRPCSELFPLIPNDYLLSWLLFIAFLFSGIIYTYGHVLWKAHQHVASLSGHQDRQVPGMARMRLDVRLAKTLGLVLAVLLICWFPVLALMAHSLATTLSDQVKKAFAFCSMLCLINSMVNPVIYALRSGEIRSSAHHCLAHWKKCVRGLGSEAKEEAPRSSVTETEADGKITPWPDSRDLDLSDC

`C=C(C)[C@@H]1CCC(C)=C[C@H]1c1c(O)cc(CCCCC)cc1O` [CBD, 2-(1R,6R)-3-methyl-6-prop-1-en-2-ylcyclohex-2-en-1-yl-5-pentylbenzene-1,3-diol]: the T1/2 in data set [1] (120 mg/kg dose, oral) was 4 to 5 h. Further, the “Bioavailability of CBD delivered orally” value in data set [1] (single 10 mg/kg) is given as 2.8%. Also, the “Affinity for CB2 receptors” value at CB2 receptors is given as “low affinity”. Moreover, the logP in data set [2] was approximately 6. Besides, the Safety entry in data set [3] is recorded as “safe”.
